Laboratory results from PMC11672637, “7-O-Carboxylic Acid-Substituted 3-O-Alkyl Difluoroquercetin; An Aztreonam-Potentiating Agent Against Carbapenemase-Producing Pseudomonas aeruginosa Through Simultaneous Inhibition of Metallo-β-Lactamase and Efflux Pump” (Antibiotics, 2024).
Like-named read-outs stand apart in the source and are kept apart here.

Tests used:
[1] = In vivo pharmacokinetic study; set-up: species or system Sprague–Dawley (SD) rats; settings: rat; for Vd: iv, 5 mg/kg; for MRT last: read-out: MRT0–last; for MRT inf: read-out: MRT0–∞
Description: After administration of compound 5 (5 mg/kg intravenously and 10 mg/kg orally) to specific pathogen-free (SPF) male Sprague–Dawley (SD) rats (Medicilon Colony: 999M-017), samples of serum were taken at eight different time points (0.083, 0.25, 0.5, 1, 2, 4, 8, and 24 h). Analysis of the samples were performed by liquid chromatography with tandem mass spectrometry (LC-MS/MS). A standard set of parameters were calculated using non-compartmental analysis modules in FDA certified pharmacokinetic program Phoenix WinNonlin 7.0 (Pharsight, Mountain View, CA, USA).

PA-021, blaIMP = assay: MIC / checkerboard with ATM; format: cell-based, P. aeruginosa; settings: for MIC: Pseudomonas aeruginosa, read-out: MIC of ATM with 5, PA-021
PA-032, blaIMP = assay: MIC / checkerboard with ATM; format: cell-based, P. aeruginosa; settings: for MIC: Pseudomonas aeruginosa, read-out: MIC of ATM with 5, PA-032
PA-002, blaIMP = assay: MIC / checkerboard with ATM; format: cell-based, P. aeruginosa; settings: for MIC: Pseudomonas aeruginosa, read-out: MIC of ATM with 5, PA-002
PA-026, blaNDM = assay: MIC / checkerboard with ATM; format: cell-based, P. aeruginosa; settings: for MIC: Pseudomonas aeruginosa, read-out: MIC of ATM with 5, PA-026
[2] = system: NDM-1-Producing P. aeruginosa (PA-017, blaNDM); assay: MIC / checkerboard with ATM; format: cell-based; settings: PA-017
[3] = male, Sprague-Dawley, serum, Intravenous (5 mg/kg)
[4] = male, Sprague-Dawley, serum, Oral (10 mg/kg)

CC(C)(C)CCOc1c(-c2ccc(F)c(F)c2)oc2cc(OCC(=O)O)cc(O)c2c1=O [Compound 5, 2-((2-(3,4-Difluorophenyl)-3-(3,3-dimethylbutoxy)-5-hydroxy-4-oxo-4H-chromen-7-yl)oxy)acetic Acid]
Vd ([1]; male, Sprague-Dawley, serum, Intravenous (5 mg/kg), read-out: Vss): 0.65 ± 0.09 L/kg
Vd ([1]; male, Sprague-Dawley, serum, Intravenous (5 mg/kg), read-out: Vz): 1.84 ± 0.76 L/kg
Vd ([1]; male, Sprague-Dawley, serum, intravenous 5 mg/kg, read-out: Vss): 0.65 L/kg
AUC(0-inf) [1, 3]: 3610 ± 590 ng·h/mL
AUC(0-t) [1, 3]: 3600 ± 590 ng·h/mL
C0 [1, 3]: 11100 ± 2390 ng/mL
half-life [1, 3]: 0.92 ± 0.42 h
clearance ([1]; male, Sprague-Dawley, serum, Intravenous (5 mg/kg), read-out: Cl (systemic clearance)): 23.6 mL/min/kg
Cmax ([1]; male, Sprague-Dawley, serum, Intravenous (5 mg/kg), read-out: Cmax): 7510 ng/mL
MRT last [1, 3]: 0.45 ± 0.02 h
MRT inf [1, 3]: 0.46 ± 0.02 h
AUC(0-inf) [1, 4]: 1280 ± 540 ng·h/mL
AUC(0-t) [1, 4]: 1250 ± 570 ng·h/mL
Tmax [1, 4]: 2 h
half-life [1, 4]: 1.28 ± 0.53 h
Cmax ([1]; male, Sprague-Dawley, serum, Oral (10 mg/kg), read-out: Cmax): 290 ± 140 ng/mL
bioavailability ([1]; male, Sprague-Dawley, serum, Oral (10 mg/kg), read-out: F (bioavailability)): 17.3 ± 7.88%
MRT last [1, 4]: 2.87 ± 0.25 h
MRT inf [1, 4]: 3.13 ± 0.35 h
Cmax ([1]; Intravenous (5 mg/kg)): 7510 ± 1340 ng/mL
Activity (FICI class) (PA-021, blaIMP; PA-021): I (I (indifference, 0.5 < FICI ≤ 4))
Lowest FICI (ATM/5) (PA-021, blaIMP; PA-021): 0.50
Susceptibility to ATM (PA-021, blaIMP; PA-021, ATM/5): S (S (sensitive, MIC ≤ 8 mg/L))
FD (fold decrease in MIC of ATM with 5) (PA-021, blaIMP; PA-021, lowest-FICI combination): 2
MIC (PA-021, blaIMP; 5 at 1 mg/L): 1 µg/mL
MIC (PA-021, blaIMP; 5 at 2 mg/L): 0.5 µg/mL
MIC (PA-021, blaIMP; 5 at 4 mg/L): 0.5 µg/mL
MIC (PA-021, blaIMP; 5 at 8 mg/L): 0.5 µg/mL
MIC (PA-021, blaIMP; 5 at 16 mg/L): 0.5 µg/mL
MIC (PA-021, blaIMP; 5 at 32 mg/L): 0.5 µg/mL
MIC (PA-021, blaIMP; 5 at 64 mg/L): 0.5 µg/mL
Activity (FICI class) (PA-032, blaIMP; PA-032): S (S (Synergy, FICI ≤ 0.5))
Concentrations of ATM and 5 at lowest FICI (ATM/5) (PA-032, blaIMP; PA-032): 2/8
Susceptibility to ATM (PA-032, blaIMP; PA-032, ATM/5): S (S (sensitive, MIC ≤ 8 mg/L))
FD (fold decrease in MIC of ATM with 5) (PA-032, blaIMP; PA-032, lowest-FICI combination): 4
MIC (PA-032, blaIMP; 5 at 1 mg/L): 4 µg/mL
MIC (PA-032, blaIMP; 5 at 2 mg/L): 4 µg/mL
MIC (PA-032, blaIMP; 5 at 4 mg/L): 4 µg/mL
MIC (PA-032, blaIMP; 5 at 8 mg/L): 2 µg/mL
MIC (PA-032, blaIMP; 5 at 16 mg/L): 1 µg/mL
MIC (PA-032, blaIMP; 5 at 32 mg/L): 1 µg/mL
MIC (PA-032, blaIMP; 5 at 64 mg/L): 1 µg/mL
Activity (FICI class) (PA-002, blaIMP; PA-002): S (S (Synergy, FICI ≤ 0.5))
Concentrations of ATM and 5 at lowest FICI (ATM/5) (PA-002, blaIMP; PA-002): 8/4
Lowest FICI (ATM/5) (PA-002, blaIMP; PA-002): 0.26
Minimum concentration of 5 to make sensitive to ATM (PA-002, blaIMP; PA-002): 4 mg/L
Susceptibility to ATM (PA-002, blaIMP; PA-002, ATM/5): S (S (sensitive, MIC ≤ 8 mg/L))
FD (fold decrease in MIC of ATM with 5) (PA-002, blaIMP; PA-002, lowest-FICI combination): 4
MIC (PA-002, blaIMP; 5 at 1 mg/L): 16 µg/mL
MIC (PA-002, blaIMP; 5 at 2 mg/L): 16 µg/mL
MIC (PA-002, blaIMP; 5 at 4 mg/L): 8 µg/mL
MIC (PA-002, blaIMP; 5 at 8 mg/L): 8 µg/mL
MIC (PA-002, blaIMP; 5 at 16 mg/L): 4 µg/mL
MIC (PA-002, blaIMP; 5 at 32 mg/L): 4 µg/mL
MIC (PA-002, blaIMP; 5 at 64 mg/L): 2 µg/mL
Activity (FICI class) (PA-026, blaNDM; PA-026): S (S (Synergy, FICI ≤ 0.5))
Concentrations of ATM and 5 at lowest FICI (ATM/5) (PA-026, blaNDM; PA-026): 2/4
Lowest FICI (ATM/5) (PA-026, blaNDM; PA-026): 0.26
Susceptibility to ATM (PA-026, blaNDM; PA-026, ATM/5): S (S (sensitive, MIC ≤ 8 mg/L))
FD (fold decrease in MIC of ATM with 5) (PA-026, blaNDM; PA-026, lowest-FICI combination): 4
MIC (PA-026, blaNDM; 5 at 1 mg/L): 4 µg/mL
MIC (PA-026, blaNDM; 5 at 2 mg/L): 4 µg/mL
MIC (PA-026, blaNDM; 5 at 4 mg/L): 2 µg/mL
MIC (PA-026, blaNDM; 5 at 8 mg/L): 2 µg/mL
MIC (PA-026, blaNDM; 5 at 16 mg/L): 1 µg/mL
MIC (PA-026, blaNDM; 5 at 32 mg/L): 1 µg/mL
MIC (PA-026, blaNDM; 5 at 64 mg/L): 1 µg/mL
Activity (FICI class) [2]: S (S (Synergy, FICI ≤ 0.5))
Concentrations of ATM and 5 at lowest FICI (ATM/5) [2]: 4/4
Lowest FICI (ATM/5) [2]: 0.26
Minimum concentration of 5 to make sensitive to ATM [2]: 4 mg/L
Susceptibility to ATM ([2]; ATM/5): S (S (sensitive, MIC ≤ 8 mg/L))
